Key:
Experiment in all cases: Ras GTP binding domain inhibition assay (labeled GTP)
KRas G12C mutant = KRas G12C mutant (Homo sapiens (Human), UniProt P01116, G12C); conditions: 20 μM compound; read-out: % Inhibition at 20 μM KRas G12C
Summary of the method: (§1)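 Inhibition of labeled GTP binding is measured on immobilized His-KRas protein in Tris buffer pH 7.5 with 1 mM MgCl2 and 1 mM DTT.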

[1] = target: KRas G12C/Q61H double mutant (Homo sapiens (Human), UniProt P01116, G12C/Q61H); conditions: 20 μM compound; read-out: % Inhibition at 20 μM KRas G12C Q61H
Summary of the method: as §1

[2] = target: KRas G12D/Q61H double mutant (Homo sapiens (Human), UniProt P01116, G12D/Q61H); conditions: for inhibition at 20 µM: 20 μM compound, read-out: % Inhibition at 20 μM KRas G12D Q61H; for IC50: serial dilution, read-out: KRas G12D Q61H (classes E-H, IC50)
Summary of the method: as §1

KRas Q61H mutant = KRas Q61H mutant (Homo sapiens (Human), UniProt P01116, Q61H); conditions: 20 μM compound; read-out: % Inhibition at 20 μM KRas Q61H
Summary of the method: as §1

KRas wild type = KRas wild type (Homo sapiens (Human), UniProt P01116); conditions: 20 μM compound; read-out: % Inhibition at 20 μM KRas wild type
Summary of the method: as §1

KRas G12D mutant protein = KRas G12D mutant protein (Homo sapiens (Human), UniProt P01116, G12D); conditions: 20 μM compound; read-out: % Inhibition at 20 μM KRas G12D
Sequence of KRas G12D mutant protein (P01116-2 other isoform, or with tags, fused parts or gaps G12D): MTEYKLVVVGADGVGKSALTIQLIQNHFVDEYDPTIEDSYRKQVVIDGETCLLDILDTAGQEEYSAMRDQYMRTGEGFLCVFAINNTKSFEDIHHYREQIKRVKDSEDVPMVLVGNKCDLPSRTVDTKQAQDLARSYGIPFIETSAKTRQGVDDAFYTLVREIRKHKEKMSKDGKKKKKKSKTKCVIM

Sequence of KRas wild type (P01116-2 other isoform, or with tags, fused parts or gaps): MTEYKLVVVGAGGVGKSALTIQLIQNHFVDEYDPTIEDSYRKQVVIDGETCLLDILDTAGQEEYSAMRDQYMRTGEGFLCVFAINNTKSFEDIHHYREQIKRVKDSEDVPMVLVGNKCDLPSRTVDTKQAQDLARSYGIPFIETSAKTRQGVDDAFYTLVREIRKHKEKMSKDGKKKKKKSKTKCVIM
Sequence of KRas Q61H mutant (P01116-2 other isoform, or with tags, fused parts or gaps Q61H): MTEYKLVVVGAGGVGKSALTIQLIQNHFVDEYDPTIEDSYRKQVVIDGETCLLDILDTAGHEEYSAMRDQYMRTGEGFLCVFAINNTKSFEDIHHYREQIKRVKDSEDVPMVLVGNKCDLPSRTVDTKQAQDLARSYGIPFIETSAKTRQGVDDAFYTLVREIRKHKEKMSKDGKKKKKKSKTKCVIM
Sequence of KRas G12C mutant (P01116-2 other isoform, or with tags, fused parts or gaps G12C): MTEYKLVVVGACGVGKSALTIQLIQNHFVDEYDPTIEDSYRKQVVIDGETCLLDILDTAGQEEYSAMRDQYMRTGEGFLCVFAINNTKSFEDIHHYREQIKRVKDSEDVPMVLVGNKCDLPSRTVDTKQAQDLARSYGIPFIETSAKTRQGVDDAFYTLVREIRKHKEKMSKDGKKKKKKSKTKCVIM
Sequence of KRas G12C/Q61H double mutant (P01116-2 other isoform, or with tags, fused parts or gaps G12C/Q61H): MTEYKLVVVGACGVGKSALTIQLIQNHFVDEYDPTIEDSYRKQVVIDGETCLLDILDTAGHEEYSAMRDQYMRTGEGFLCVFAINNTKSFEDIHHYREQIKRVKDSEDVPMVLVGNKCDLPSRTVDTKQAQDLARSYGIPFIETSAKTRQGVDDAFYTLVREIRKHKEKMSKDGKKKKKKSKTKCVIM
Sequence of KRas G12D/Q61H double mutant (P01116-2 other isoform, or with tags, fused parts or gaps G12D/Q61H): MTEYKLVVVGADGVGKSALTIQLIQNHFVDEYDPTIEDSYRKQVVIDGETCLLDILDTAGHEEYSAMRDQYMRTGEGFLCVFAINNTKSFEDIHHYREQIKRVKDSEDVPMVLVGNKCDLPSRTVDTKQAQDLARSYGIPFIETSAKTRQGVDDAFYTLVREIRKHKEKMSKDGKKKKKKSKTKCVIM

Row | Compound | inhibition at 20 µM (KRas G12C mutant) [%] | inhibition at 20 µM [1] [%] | inhibition at 20 µM [2] [%] | inhibition at 20 µM (KRas Q61H mutant) [%] | inhibition at 20 µM (KRas wild type) [%] | inhibition at 20 µM (KRas G12D mutant protein) [%] | IC50 [2] [µM]
1 | Oc1nc(-c2ccccn2)nc2scc(Br)c12 [drawing 2703] | 25 to 50 | 51 to 75 | 51 to 75 | 76 to 100 | 51 to 75 | 51 to 75 | –
2 | Oc1nc(-c2ccccn2)nc2sccc12 [drawing 2704] | 25 to 50 | 51 to 75 | 51 to 75 | 51 to 75 | 25 to 50 | 25 to 50 | 11 to 30
3 | COc1ccnc(-c2nc(O)c3ccsc3n2)c1 [drawing 2708] | 51 to 75 | 51 to 75 | 51 to 75 | 51 to 75 | 25 to 50 | 51 to 75 | 5 to 10
4 | CC1CN(c2ccccc2)CCN1C(=O)c1csc2c(O)nc(-c3ccccn3)nc12 (centres unmarked) [drawing 2761] | 51 to 75 | 76 to 100 | 51 to 75 | 76 to 100 | 25 to 50 | 76 to 100 | 5 to 10
5 | COc1cccc(CN2CCN(C(=O)c3csc4c(O)nc(-c5ccccn5)nc34)CC2)c1 [drawing 2763] | 25 to 50 | 76 to 100 | 25 to 50 | 76 to 100 | 25 to 50 | 76 to 100 | –
6 | O=C(c1csc2c(O)nc(-c3ccccn3)nc12)N1CCOC(c2ccccc2Cl)C1 (centres unmarked) [drawing 2769] | 25 to 50 | 76 to 100 | 51 to 75 | 76 to 100 | 51 to 75 | 25 to 50 | 5 to 10
7 | COc1cccc(C2CN(C(=O)c3csc4c(O)nc(-c5ccccn5)nc34)CCN2)c1 (centres unmarked) [drawing 2773] | 25 to 50 | 51 to 75 | 25 to 50 | 76 to 100 | 25 to 50 | 51 to 75 | 11 to 30
8 | N#Cc1ccc(COCC(=O)Nc2nc(-c3ccccn3)nc3sccc23)cc1 [drawing 2799] | 25 to 50 | 76 to 100 | 25 to 50 | 76 to 100 | 25 to 50 | 76 to 100 | 11 to 30
9 | COc1ccnc(-c2nc(O)c3c(Cl)csc3n2)c1 [drawing 2800] | 25 to 50 | 76 to 100 | 51 to 75 | 76 to 100 | 51 to 75 | 51 to 75 | 11 to 30
10 | O=C(c1csc2c(O)nc(-c3ccccn3)nc12)N1CCNC(c2ccc(O)cc2)C1 (centres unmarked) [drawing 2808] | 51 to 75 | 76 to 100 | 76 to 100 | 76 to 100 | 76 to 100 | 51 to 75 | 5 to 10
11 | Cc1cnc(-c2ccccn2)nc1NC(=O)C1CCCc2cc(C#N)ccc21 (centres unmarked) [drawing 2827] | 25 to 50 | 51 to 75 | 51 to 75 | 51 to 75 | 51 to 75 | 25 to 50 | –
12 | O=C(COCc1ccncc1)Nc1nc(-c2ccccn2)nc2sccc12 [drawing 2828] | 51 to 75 | 51 to 75 | 51 to 75 | 51 to 75 | 25 to 50 | 51 to 75 | –
13 | O=C(COCc1cccnc1)Nc1nc(-c2ccccn2)nc2sccc12 [drawing 2829] | 51 to 75 | 76 to 100 | 51 to 75 | 76 to 100 | 51 to 75 | 51 to 75 | –
14 | Nc1nc(-c2ccccn2)nc2ccsc12 [drawing 2834] | 25 to 50 | 25 to 50 | 25 to 50 | 51 to 75 | 1 to 25 | 1 to 25 | –
15 | Cc1cc2nc(-c3ccccn3)nc(N)c2s1 [drawing 2836] | 1 to 25 | 51 to 75 | 51 to 75 | 51 to 75 | 25 to 50 | 51 to 75 | –
16 | O=C(c1csc2c(O)nc(-c3ccccn3)nc12)N1CC2CC1CN2c1ccccc1 (centres unmarked) [drawing 2838] | 25 to 50 | 76 to 100 | 76 to 100 | 76 to 100 | 25 to 50 | 51 to 75 | –

Row | Compound | inhibition at 20 µM (KRas G12C mutant) [%] | inhibition at 20 µM [1] [%] | inhibition at 20 µM [2] [%] | inhibition at 20 µM (KRas Q61H mutant) [%] | inhibition at 20 µM (KRas wild type) [%] | inhibition at 20 µM (KRas G12D mutant protein) [%] | IC50 [2] [µM]
17 | O=C(c1csc2c(O)nc(-c3ccccn3)nc12)N1CCC(c2ccncc2)C1 (centres unmarked) [drawing 2839] | 51 to 75 | 51 to 75 | 51 to 75 | 51 to 75 | 51 to 75 | 51 to 75 | –
18 | O=C(c1csc2c(O)nc(-c3ccccn3)nc12)N1CCC(c2cccc(O)c2)C1 (centres unmarked) [drawing 2840] | 51 to 75 | 76 to 100 | 76 to 100 | 76 to 100 | 51 to 75 | 76 to 100 | –
19 | O=C(c1cc2nc(-c3ccccn3)nc(O)c2s1)N1CCN(c2ccccc2)CC1 [drawing 2841] | 51 to 75 | 51 to 75 | 51 to 75 | 51 to 75 | 51 to 75 | 51 to 75 | –
20 | CN(C)Cc1ccc(-c2csc3c(O)nc(-c4ccccn4)nc23)cc1F [drawing 2845] | 25 to 50 | 76 to 100 | 76 to 100 | 76 to 100 | 51 to 75 | 76 to 100 | –
21 | COCc1ccc(-c2csc3c(O)nc(-c4ccccn4)nc23)cc1F [drawing 2846] | 51 to 75 | 51 to 75 | 51 to 75 | 51 to 75 | 25 to 50 | 51 to 75 | –
22 | Oc1nc(-c2ccccn2)nc2c(-c3cc(Cl)cc(Cl)c3)csc12 [drawing 2848] | 25 to 50 | 1 to 25 | 25 to 50 | 25 to 50 | 1 to 25 | 25 to 50 | –
23 | Oc1nc(-c2ccccn2)nc2c(-c3cccc4c3OCO4)csc12 [drawing 2849] | 25 to 50 | 25 to 50 | 51 to 75 | 51 to 75 | 25 to 50 | 25 to 50 | –
24 | O=C(O)c1cc2nc(-c3ccccn3)nc(O)c2s1 [drawing 2850] | 51 to 75 | 51 to 75 | 51 to 75 | 51 to 75 | 51 to 75 | 51 to 75 | –
25 | Oc1nc(-c2ccccn2)nc2sc3c(c12)CCNC3 [drawing 2851] | 25 to 50 | 51 to 75 | 51 to 75 | 51 to 75 | 51 to 75 | 76 to 100 | –
26 | Oc1nc(-c2ccccn2)nc2sc3c(c12)CCCNC3 [drawing 2852] | 51 to 75 | 25 to 50 | 25 to 50 | 25 to 50 | 25 to 50 | 51 to 75 | –
27 | Cc1cnc(-c2ccccn2)nc1NC(=O)Cc1ccc2cnccc2c1 [drawing 2856] | 25 to 50 | 51 to 75 | 51 to 75 | 51 to 75 | 51 to 75 | 51 to 75 | –
28 | O=C(COCc1ccnc(O)c1)Nc1nc(-c2ccccn2)nc2sccc12 [drawing 2857] | 25 to 50 | 51 to 75 | 51 to 75 | 51 to 75 | 25 to 50 | 25 to 50 | –
29 | O=C(c1csc2c(O)nc(-c3ccccn3)nc12)N1CCNC(c2cn[nH]c2)C1 (centres unmarked) [drawing 2858] | 25 to 50 | 51 to 75 | 51 to 75 | 76 to 100 | 25 to 50 | 25 to 50 | –
30 | Nc1nc(-c2ccccn2)nc2c(-c3ccccc3)csc12 [drawing 2859] | 1 to 25 | 51 to 75 | 25 to 50 | 25 to 50 | 25 to 50 | 25 to 50 | –
31 | Oc1nc(-c2ccccn2)nc2c(-c3cc(F)ccc3OC(F)F)csc12 [drawing 2860] | 25 to 50 | 25 to 50 | 25 to 50 | 51 to 75 | 1 to 25 | 51 to 75 | –
32 | Cn1nnc2ccc(-c3csc4c(O)nc(-c5ccccn5)nc34)cc21 [drawing 2861] | 1 to 25 | 51 to 75 | 51 to 75 | 51 to 75 | 76 to 100 | 51 to 75 | –

From US10940139B2, “Compounds that interact with the Ras superfamily for the treatment of cancers, inflammatory diseases, rasopathies, and fibrotic disease” (Shy Therapeutics LLC, priority 2017, dated 2021)
